The source made the active and inactive calls. No cut-off for these calls is given here.
Legend:
[1] = Drug uptake in human K562i/S9 cells harboring exogenously expressed MDR1/Pgp; format: ADME, cell-based
K562 [2] = experiment: Induction of apoptosis in human K562 cells assessed as late apoptotic cells at 1.6 uM measured after 24 hrs by Annexin V-APC/PI staining based flow cytometry assay (reference value: […]); format: functional
[3] = Resistance index, ratio of IC50 for human P-gp-positive/Doxorubicin-resistant K562/4 cells to IC50 for human K562 cells; format: functional
K562 [4] = experiment: Induction of cell cycle arrest in human K562 cells assessed as accumulation at subG1 phase at 2XIC50 measured after 24 hrs by propidium iodide/RNase staining based flow cytometry; format: functional
K562 [5] = experiment: Induction of apoptosis in human K562 cells assessed as late apoptotic cells at 1.6 uM measured after 48 hrs by Annexin V-APC/PI staining based flow cytometry assay (reference value: […]); format: functional
[6] = Toxicity in BDF1 mouse xenografted with mouse P388 cells assessed as lethality at 60 mg/kg, ip administered qd for 5 days; format: organism-based; settings: in vivo, 120 h, dose 60 mg/kg/day, time 5 day
[7] = Selectivity index, ratio of IC50 for human TERT-RPE1 cells to IC50 for human CAPAN-1 cells
HCT-116 = experiment: Antiproliferative activity against human HCT-116 cells with inactivated p53 gene assessed as inhibition of cell proliferation measured after 72 hrs by MTT assay; format: functional, cell-based; settings: HCT-116, 72 h
P388 [8] = experiment: Antitumour activity against mouse P388 cells xenografted intraperitoneally in BDF1 mouse assessed as mean life span time at 20 mg/kg, ip administered qd for 5 days (reference value: 11.5 +/-0.9 days); format: functional; settings: dose 20 mg/kg/day; time 5 day
Calf thymus DNA [9] = experiment: Binding affinity to calf thymus DNA assessed as stoichiometry ratio of compound-DNA complex formation by scatchard plot analysis; settings: Bos taurus
K562 [10] = experiment: Induction of apoptosis in human K562 cells assessed as viable cells at 1.6 uM measured after 48 hrs by Annexin V-APC/PI staining based flow cytometry assay (reference value: 85.9%); format: functional; settings: read-out: Activity
Calf thymus DNA [11] = experiment: Binding affinity to calf thymus DNA assessed as DNA intercalation by measuring decrease of negative DNA band at 245 nm at 50 uM by circular dichroism spectral analysis; format: tissue-based; settings: Bos taurus
[12] = Selectivity index, ratio of IC50 for human TERT-RPE1 cells to IC50 for human HL-60 cells; format: toxicity; settings: TERT-RPE1 cells and HL-60 cells, read-out: Ratio IC50
K562 [13] = experiment: Induction of apoptosis in human K562 cells assessed as early apoptotic cells at 1.6 uM measured after 48 hrs by Annexin V-APC/PI staining based flow cytometry assay (reference value: 3.4%); format: functional
K562 [14] = experiment: Induction of cell cycle arrest in human K562 cells assessed as accumulation at G2/M phase at 2XIC50 measured after 48 hrs by propidium iodide/RNase staining based flow cytometry; format: functional
P388 [15] = experiment: Antitumour activity against mouse P388 cells xenografted subcutaneously in ip dosed BDF1 mouse assessed as inhibition of tumour growth administered qd for 5 days starting from day 1 of tumor cell inoculation and measured at day 14 to 18 post-tumor cell inoculation; format: functional, organism-based; settings: dose 20-60 mg/kg, time 14-18 day
Calf thymus DNA [16] = experiment: Binding affinity to calf thymus double stranded DNA at 10 uM measured after 5 mins by flourescence spectroscopy method; settings: Bos taurus
[17] = Selectivity index, ratio of IC50 for human TERT-RPE1 cells to IC50 for human K562 cells; format: toxicity; settings: TERT-RPE1 cells and K562 cells, read-out: Ratio IC50
[18] = Selectivity index, ratio of IC50 for human TERT-RPE1 cells to IC50 for human HCT-116 cells; format: toxicity; settings: TERT-RPE1 cells and HCT-116 cells, read-out: Ratio IC50
[19] = Drug uptake in mouse NIH3T3 cells assessed as compound localization in cytoplasm at 1 uM measured after 15 mins by laser scanning microscope; format: ADME, subcellular; settings: nih3t3, 0.25 h
P388 [20] = experiment: Antitumour activity against mouse P388 cells xenografted subcutaneously in BDF1 mouse assessed as inhibition of tumour growth at 60 mg/kg, ip administered qd for 5 days starting from day 1 of tumor cell inoculation and measured at day 18 post-tumor cell inoculation; format: functional; settings: P388, 432 h, time 18 day, read-out: TGI
TERT-RPE1 = experiment: Cytotoxicity against human TERT-RPE1 cells assessed as inhibition of cell proliferation measured after 72 hrs by MTT assay; format: cell-based; settings: RPE-1, 72 h
[21] = Drug uptake in P-gp-positive/doxorubicin-resistant human K562/4 cells; format: ADME
HL-60 = experiment: Antiproliferative activity against human HL-60 cells assessed as inhibition of cell proliferation measured after 72 hrs by MTT assay; format: functional, cell-based; settings: HL-60, 72 h
P388 [22] = experiment: Antitumour activity against mouse P388 cells xenografted subcutaneously in BDF1 mouse assessed as inhibition of tumour growth at 20 mg/kg, ip administered qd for 5 days starting from day 1 of tumor cell inoculation and measured at day 18 post-tumor cell inoculation; format: functional; settings: P388, 432 h, time 18 day, read-out: TGI
[23] = Drug uptake in mouse NIH3T3 cells assessed as compound localization in mitochondria at 1 uM measured after 15 mins by Mitotracker Green FM dye based laser scanning microscope; format: ADME; settings: nih3t3, 0.25 h
[24] = molecular target: T1, DNA topoisomerase 1 (Homo sapiens) (UniProt P11387); experiment: Inhibition of human topoisomerase 1-mediated relaxation of supercoiled plasmid using pBR322 plasmid as substrate at 40 uM measured after 30 mins by ethidium bromide dye based agarose gel electrophoresis method
T1 sequence (whole entry): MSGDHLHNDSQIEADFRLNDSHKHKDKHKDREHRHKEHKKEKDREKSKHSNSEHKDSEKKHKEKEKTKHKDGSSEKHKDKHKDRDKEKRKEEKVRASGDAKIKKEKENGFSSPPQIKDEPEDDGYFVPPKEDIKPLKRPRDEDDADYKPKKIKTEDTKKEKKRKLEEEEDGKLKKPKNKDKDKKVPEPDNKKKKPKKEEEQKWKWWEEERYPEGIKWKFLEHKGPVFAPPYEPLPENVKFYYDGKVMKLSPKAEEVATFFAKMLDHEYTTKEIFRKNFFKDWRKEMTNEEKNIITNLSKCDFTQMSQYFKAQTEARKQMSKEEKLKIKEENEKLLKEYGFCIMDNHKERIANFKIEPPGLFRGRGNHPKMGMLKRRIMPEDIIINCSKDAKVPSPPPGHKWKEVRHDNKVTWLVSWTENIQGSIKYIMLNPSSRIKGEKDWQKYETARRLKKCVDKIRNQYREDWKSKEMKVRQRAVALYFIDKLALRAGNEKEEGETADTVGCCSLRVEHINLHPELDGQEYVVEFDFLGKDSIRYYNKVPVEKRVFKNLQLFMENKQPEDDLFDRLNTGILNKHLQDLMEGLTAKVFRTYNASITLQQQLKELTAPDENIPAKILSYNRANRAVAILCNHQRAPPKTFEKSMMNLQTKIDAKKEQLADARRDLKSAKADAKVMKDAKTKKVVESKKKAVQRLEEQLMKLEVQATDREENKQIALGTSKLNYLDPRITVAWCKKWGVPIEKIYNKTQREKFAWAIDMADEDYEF

In the case of `Cc1[nH]c2c(O)c3c(c(O)c2c1C(=O)N1CC[C@H](N)C1)C(=O)c1ccccc1C3=O`, the Drug uptake [1] is reported as “Active”, the Activity (K562 [2]) is reported as 8.3% and the “Ratio IC50” value [3] is reported as 26.5. For the same compound, the Activity (K562 [4]) was “Active”, the Activity (K562 [5]) was 7.5% and the Activity [6] was “Non-Toxic”. The “Ratio IC50” value [7] was 18, the IC50 (HCT-116) was 0.8 µM and the Time (P388 [8]) was 17.6 days. For the same compound, the Ratio (Calf thymus DNA [9]) was 4.6, the viability at 1.6 µM (K562 [10]) was 56.6% and the Activity (Calf thymus DNA [11]) was “Active”. For the same compound, the selectivity ratio [12] was 18, the Activity (K562 [13]) was 0.9% and the Activity (K562 [14]) was “Active”. For the same compound, the Activity (P388 [15]) was “Dose-dependent effect”, the Activity (Calf thymus DNA [16]) was “Active” and the selectivity ratio [17] was 18. The selectivity ratio [18] was 18, the Drug uptake [19] was “Active” and the inhibition in vivo at 60 mg/kg (P388 [20]) was 79%. For the same compound, the IC50 (TERT-RPE1) was 15.8 µM, the Drug uptake [21] was “Active” and the IC50 (HL-60) was 0.9 µM. The inhibition in vivo at 20 mg/kg (P388 [22]) was 65%, the Drug uptake [23] was “Active” and the inhibition [24] was “Active”.
